Drawing on PubChem BioAssay AID2305 (GlaxoSmithKline (GSK), 2010), this text covers IC50 for 87 molecules.

This assay deals with P. falciparum 3D7 growth, pLDH absorbance. As to the kind of experiment: blood-stage malaria parasite growth potency – strain 3D7, dose response (AID 2305).
`Cc1ccc2ccncc2c1N` came in with an IC50 of 0.7 µM. This counts as sub-micromolar. Under `COc1ccc(O)c(-c2sc(N=C(N)N)nc2-c2ccccc2)c1` stands 0.37 µM; under `CCN1CCC(N(Cc2ccc(-c3ccc(C(F)(F)F)s3)cc2)C(=O)Cn2c(CCc3cccc(F)c3F)nc(=O)c3ccccc32)CC1`, 0.93 µM; under `COc1ccc(CNCc2ccsc2)cc1-c1ccc(OC)c(S(=O)(=O)NCCN2CCCC2)c1`, 0.92 µM.

In turn, `CCCc1cc(OC)c(CC2c3cc(O)c(Cl)cc3CCN2C)cc1OC` (configuration not stated) came in with an IC50 of 0.57 µM.

`CN1CC[C@@H](Oc2cc(NC(=O)Nc3ccc(Cl)c(C(F)(F)F)c3)ccc2Cl)C1` came in with an IC50 of 0.99 µM. Next, `CCNc1cc(C(=O)N[C@@H](Cc2ccccc2)[C@H](O)CN[C@H](C)c2ccccc2)cc(N2CCCC2=O)c1`: 0.05 µM. Under `O=C(NCCN1CCCC1)c1cccc(-c2ccc(-c3nc4ccccc4[nH]3)cc2)c1` stands 0.92 µM; under `CCCCCc1ccc(NC(=O)Nc2ccc(Cn3ncc(N4CCCNCC4)c(Cl)c3=O)cc2)cc1`, 1.14 µM; under `FC(F)(F)c1ccc(NC(=S)N2CCC(CN3CCC(c4c[nH]c5ccccc45)CC3)CC2)cc1`, 0.66 µM. Next, `COc1c(C)[nH]c(C)c(-c2ccc(Oc3cccc(C(F)(F)F)c3)cc2)c1=O`: 0.31 µM.

The molecule `CN1CCCC1CCNc1ncc2c(-c3ccc(NC(=O)Nc4cc(C(F)(F)F)ccc4F)c(F)c3)nn(C)c2n1` (configuration not stated) showed an IC50 of 0.29 µM. The IC50 values of the last two molecules are within 1.5-fold of each other. Under `c1ccc2[nH]c(-c3ccc(-c4ccc(CNCCc5ccncc5)cc4)s3)nc2c1` stands 0.16 µM; under `CCNc1cc(C(=O)N[C@@H](Cc2ccccc2)[C@H](O)CN[C@@H](C)c2cccc(OC)c2)cc(N2CCCC2=O)c1`, 0.77 µM. Next, `O=C(Nc1ccc(Cl)c(Cl)c1)Nc1ccc2c(c1)CCNCC2`: 0.53 µM. Next, `CC[C@H]1CN2CC[C@@H]1C[C@H]2[C@H](O)c1cc(-c2ccccc2)nc2ccc(O)cc12`: 0.19 µM; `COc1cccc(-c2cccc(NC(=O)C3CCN(Cc4ccc(O)cc4)CC3)c2)c1`: 1.03 µM. Consider `CC(C)N1CCN(c2ccc(OCCCCN3CCN(c4cccc(Cl)c4Cl)CC3)cc2Cl)CC1`, for which the IC50 is 1.04 µM. Regarding `Cc1[nH]c(C)c(-c2ccc(CCc3ccc(N)cc3)cc2)c(=O)c1Cl`, the IC50 stood at 0.1 µM. Next, `Cc1ccc(CNc2ccc3ncc(-c4cccc(C(=O)NCCN(C)C)c4)n3n2)c(C)c1`: 0.59 µM. Molecule `CC(C)Cc1cn(-c2nc(C(=N)N)cs2)c2cc(Cl)ccc12` gave a half-maximal inhibitory concentration (IC50) of 0.15 µM. Next, `CC(C)CC(=O)N1CCNC[C@@H]1C(=O)NCCSCc1c(F)cccc1Cl`: 1.2 µM; `COc1ccc(CNC2Cc3ccccc3C2)cc1-c1ccc(S(=O)(=O)NCCN2CCCC2)c(F)c1`: 0.72 µM. Next, `C=CCn1c(=N)n(CC(O)c2ccc(Cl)c(Cl)c2)c2ccccc21` (configuration not stated): 0.34 µM; `COc1ccc2ncc(C#N)c(CCN3C[C@H](CNCc4ccccc4)[C@H](O)C3)c2n1`: 1.06 µM. For the molecule `Cc1cc(NC(=O)c2coc3cc(F)c(N4C[C@@H](C)N(C)[C@@H](C)C4)cc23)cnc1-c1ccc(C#N)cc1`, the half-inhibitory concentration (IC50) came to 0.7 µM.

`Cc1ccc2c(Cl)c(C(=O)N3CC(C)OC(C)C3)sc2c1` (configuration not stated) registered an IC50 of 0.18 µM. This IC50 lies about 3.9-fold lower than the previous one. Under `COc1cccc(-c2csc(C(=O)NC3CCCCN(Cc4ccc(C(C)(C)C)cc4)C3)c2)c1` (configuration not stated) stands 0.89 µM. Under `O=C(Nc1ccc(C(F)(F)F)cc1)c1cccc(S(=O)(=O)NC2CCN(CC3CCCCC3)C2)c1` (configuration not stated) stands 0.69 µM; under `COc1cc(Cc2cnc(N)nc2N)cc(OCCCS(=O)(=O)O)c1OC`, 1.17 µM; under `CN(Cc1cnc2nc(N)nc(N)c2n1)c1ccc(C(=O)N[C@H](CCC(=O)O)C(=O)O)cc1`, 0.1 µM. `Cc1cc(NN=Cc2ccccc2Cl)c2ccccc2n1`: the IC50 came out at 0.9 µM. This IC50 is about 9-fold higher than that of the molecule before. Next, `CC1CCCCC1N(C)C1CCN(CCCNC(=O)C=Cc2ccccc2Cl)CC1` (configuration not stated): 0.67 µM; `Cc1ccc(N/C(N)=N/c2ncccc2OCc2c(F)cccc2Cl)cc1`: 1.19 µM. Next, `O=C(NCCc1cccc(F)c1)c1cc(Br)cc(N2CCN(c3ccncc3)CC2)c1`: 0.76 µM.

In turn, `COc1ccc2nccc([C@@H](O)CN3CCC(NCc4cc5oc(=O)[nH]c5cc4Cl)CC3)c2c1` displayed an IC50 of 0.38 µM. Compared with the last molecule, the IC50 is about 2-fold lower. Next, `COc1cccc(CC(=O)NC2CCN(c3ccnc4cc(Cl)ccc34)C2)c1` (configuration not stated): 0.7 µM; `O=C(Nc1ccc(CN2CCC(c3c[nH]c4ccc(O)cc34)CC2)cc1)c1ccc(-c2ccccc2)cc1`: 0.25 µM; `COc1ccc(Cl)cc1N1CCN(CCCNC(=O)c2ccc(-c3nc4cc(Cl)c(F)cc4[nH]3)s2)CC1`: 0.31 µM. Under `Cc1c(C)n(C2CCCC2)c2ncnc(OC3CCN(CC(=O)NC4CC4)CC3)c12` stands 0.79 µM; under `Cc1[nH]c(C)c(-c2ccc(OCc3cc(F)cc(F)c3)nc2)c(=O)c1Br`, 0.1 µM; under `CCN1CCN(c2cc(C)c3cc(NC(=O)c4cccc(Cl)c4)ccc3n2)CC1`, 0.77 µM. Under `Cc1cc(N(C)C)nc(Nc2ccc(NC(=O)c3c(F)cccc3Cl)cc2)n1` stands 1.09 µM; under `O=c1cc(NCCCNCc2cc(Cl)cc(Cl)c2OCc2ccccc2)[nH]c2ccccc12`, 1.03 µM. In turn, `Cc1cccc2c(/C=C/C(=O)NC3CCC(CCN4CCc5ccc(C#N)cc5CC4)CC3)c[nH]c12` (configuration not stated) yielded a 50% inhibitory concentration (IC50) of 1.22 µM. This IC50 and that of the molecule before are within 1.5-fold of each other. Regarding `Cc1[nH]c(C)c(-c2ccc(S(=O)(=O)c3ccc(Cl)cc3)cc2)c(=O)c1Br`, the IC50 was 0.04 µM. Against the preceding molecule, the IC50 is about 30-fold lower. `CCOc1cc(C)ccc1C1CCN(CCCCNC(=O)c2coc(-c3ccc(Cl)cc3)c2)CC1` yielded an IC50 of 0.91 µM. Against the preceding molecule, the IC50 is about 23-fold higher.

For `NS(=O)(=O)c1cccc(N=Cc2c(O)[nH]c3ccc(S(=O)(=O)Cc4c(Cl)cccc4Cl)cc23)c1`, the IC50 turned out to be 0.72 µM. `O=[N+]([O-])c1ccc(CNCCCCCCNCc2ccc([N+](=O)[O-])c3ccccc23)c2ccccc12` came in with an IC50 of 0.79 µM. Next, `COc1ccc(-c2csc(NC(=O)CCC(=O)O)n2)cc1OC`: 0.84 µM. Next, `Oc1ccc(CCCNc2nc(NCc3ccccc3-c3ccccc3)nc(N3CCNCC3)n2)cc1`: 0.71 µM.

Molecule `Cc1nc2ccccc2n1C1C[C@H]2CC[C@@H](C1)N2CCCC1(c2ccccc2)CCN(C(=O)OCc2ccccc2)CC1` (some centres not stated) registered an IC50 of 1 µM. Next, `O=C(NC1CC1)c1ccc(Cn2c(SCc3cccc(Cl)c3)nc3ccccc3c2=O)cc1`: 0.42 µM; `O=C(NCc1cccc(C(F)(F)F)c1)c1ccc(CNC(=O)c2ccc(O)c(-c3ccc(Cl)c(Cl)c3)c2)cc1`: 0.84 µM; `CCCOc1cc(O)c(-c2n[nH]c(C)c2Oc2ccccc2)cc1CC`: 1.07 µM. In turn, `COc1ccc2nccc([C@@H](O)CN3CCC(NCc4cc5ccccc5s4)CC3)c2c1` yielded an IC50 of 0.35 µM.

Turning to `COc1cccc(C(=O)OC2=C3CCC(=O)C3(C)CCC2=O)c1` (configuration not stated), the IC50 came to 0.08 µM. Next, `C=CCC1OC(=O)c2cc(OC)cc(OC)c21` (configuration not stated): 0.34 µM; `Cc1[nH]c(C)c(-c2ccc(Oc3ccc(Cl)cc3)cc2)c(=O)c1Cl`: 0.79 µM; `CCN(CCCN1CCCCC1)c1cc(C)nc(Nc2ccc(C)c(Cl)c2)n1`: 0.21 µM. Next, `CNS(=O)(=O)Cc1ccc(Nc2nccc(Nc3cccc4c3cnn4C(=O)Nc3ccccc3)n2)cc1`: 0.96 µM; `CC1(C)Cc2c(oc3ncn(CCn4cnc5oc6c(c5c4=N)CC(C)(C)SC6)c(=N)c23)CS1`: 0.72 µM; `NCCCNc1ccnc2cc(Cl)ccc12`: 0.3 µM. On to `O=C(Nc1ccc(Br)cc1)c1cc(Br)ccc1NS(=O)(=O)c1cc(C(F)(F)F)cc(C(F)(F)F)c1`, for which the IC50 worked out at 0.88 µM. Compared with the last molecule, the IC50 is about 2.9-fold higher. Take `CN(Cc1ccc(-c2ccc(C(F)(F)F)cc2)cc1)C(=O)Cn1c(CCc2cccc(F)c2F)nc(=O)c2ccc(N3CCN(CCN4CCCCC4)CC3)nc21`: the IC50 came to 0.76 µM. Under `COc1cccc(C(=O)Nc2nc3c(s2)CCN(Cc2ccccc2N2CCNCC2)CC3)c1` stands 0.89 µM; under `CN(Cc1ccccc1)C1CCN(c2cc(NC(=O)c3cccc(F)c3)ccn2)CC1`, 1.51 µM. Under `CS(=O)(=O)c1ccc(Nc2ncc(-c3ccc(S(C)(=O)=O)cc3)c(OCC(F)(F)F)n2)cc1` stands 0.4 µM; under `OCCN1CCN(Cc2cccc(-c3cccc(-c4nc5ccc(F)cc5[nH]4)c3)c2)CC1`, 0.71 µM. Under `COc1cc(N)cc2sc(N)nc12` stands 0.25 µM; under `CCOc1cc(C(=O)NCCN2CCCCC2)ccc1-c1nc2ccc(Cl)cc2[nH]1`, 1.08 µM. Consider `Cc1cccc2[nH]c(-c3ccc(-c4cccc(CNCc5cccc(N)c5)c4)cc3)nc12`, for which the IC50 came to 0.39 µM. Next, `CC(=O)C1(c2ccccc2)CCN(CCC2(c3ccc(Cl)c(Cl)c3)CN(C(=O)CC(C)C)CCO2)CC1` (configuration not stated): 0.64 µM; `FC(F)(F)c1ccc2nc(-c3cccc(-c4ccc(CNCC5CCCO5)cc4)c3)[nH]c2c1` (configuration not stated): 0.28 µM. Under `COc1cncc(/C=C/c2cncc(C(=O)NCCc3ccc(Cl)cc3Cl)c2)c1` stands 0.88 µM. Consider `COc1ccc(C[C@H](N)C(=O)N[C@H]2[C@@H](O)[C@H](n3cnc4c(N(C)C)ncnc43)O[C@@H]2CO)cc1`, for which the IC50 amounted to 0.3 µM. Next, `COc1cc(SC)ccc1C(=O)N1CC(C)CC(C)C1` (configuration not stated): 0.35 µM; `COc1ccc(CNCc2cccc(-c3cccc(-c4nc5ccccc5[nH]4)c3)c2)cc1`: 0.37 µM; `COc1cc2c(cc1C(F)(F)F)N(C(=O)Nc1cc(Br)cc(-c3cccnc3)c1)CC2`: 0.86 µM. `COc1ccc2nccc([C@@H](O)CN3CCC(NCc4ccc5c(c4)sc(=O)n5C)CC3)c2c1`: the IC50 was 0.26 µM. Next, `COC(=O)/C=C/c1ccc(CC(C)NCC(O)c2cccc(Cl)c2)cc1` (configuration not stated): 0.75 µM. Next, `Cc1ccc(F)c(OCC2CCN(c3ccc(C(=O)NC4CC4)cn3)CC2)c1`: 0.73 µM. Next, `COc1ccc2nc3cc(Cl)ccc3c(N)c2c1`: 0.17 µM; `CCOC(=O)c1[nH]c(-c2ccccc2)nc1-n1nc(C)cc1C`: 0.69 µM. Molecule `O=C(Nc1ccc(S(=O)(=O)N2CCOCC2)cc1)c1cc(-c2cc(Cl)ccc2O)n[nH]1` came in with an IC50 of 0.77 µM. Next, `COc1ccc(CN2CCN(C(=O)c3cccs3)CC2)c(O)c1`: 0.84 µM; `Nc1nc(N)c2cc(Sc3ccc4ccccc4c3)ccc2n1`: 0.02 µM.

The IC50 is the point on the concentration scale where inhibition reaches its midpoint. Low values mean greater potency in that assay, high ones weaker potency in that assay.
